Results: ChEMBL document CHEMBL1681644, “Scaffold oriented synthesis. Part 3: design, synthesis and biological evaluation of novel 5-substituted indazoles as potent and selective kinase inhibitors employing [2+3] cycloadditions” (Bioorg Med Chem Lett, 2011)

How the values were obtained:
[1] = target: Glycogen synthase kinase-3 beta (Homo sapiens, UniProt P49841)
Description: Inhibition of GSK3-beta after 1 hr

[2] = target: Tyrosine-protein kinase JAK2 (Homo sapiens, UniProt O60674); assay: Inhibition of JAK2 after 1 hr using biotinylated PDKtide as substrate
Tyrosine-protein kinase JAK2, sequence (O60674 whole entry): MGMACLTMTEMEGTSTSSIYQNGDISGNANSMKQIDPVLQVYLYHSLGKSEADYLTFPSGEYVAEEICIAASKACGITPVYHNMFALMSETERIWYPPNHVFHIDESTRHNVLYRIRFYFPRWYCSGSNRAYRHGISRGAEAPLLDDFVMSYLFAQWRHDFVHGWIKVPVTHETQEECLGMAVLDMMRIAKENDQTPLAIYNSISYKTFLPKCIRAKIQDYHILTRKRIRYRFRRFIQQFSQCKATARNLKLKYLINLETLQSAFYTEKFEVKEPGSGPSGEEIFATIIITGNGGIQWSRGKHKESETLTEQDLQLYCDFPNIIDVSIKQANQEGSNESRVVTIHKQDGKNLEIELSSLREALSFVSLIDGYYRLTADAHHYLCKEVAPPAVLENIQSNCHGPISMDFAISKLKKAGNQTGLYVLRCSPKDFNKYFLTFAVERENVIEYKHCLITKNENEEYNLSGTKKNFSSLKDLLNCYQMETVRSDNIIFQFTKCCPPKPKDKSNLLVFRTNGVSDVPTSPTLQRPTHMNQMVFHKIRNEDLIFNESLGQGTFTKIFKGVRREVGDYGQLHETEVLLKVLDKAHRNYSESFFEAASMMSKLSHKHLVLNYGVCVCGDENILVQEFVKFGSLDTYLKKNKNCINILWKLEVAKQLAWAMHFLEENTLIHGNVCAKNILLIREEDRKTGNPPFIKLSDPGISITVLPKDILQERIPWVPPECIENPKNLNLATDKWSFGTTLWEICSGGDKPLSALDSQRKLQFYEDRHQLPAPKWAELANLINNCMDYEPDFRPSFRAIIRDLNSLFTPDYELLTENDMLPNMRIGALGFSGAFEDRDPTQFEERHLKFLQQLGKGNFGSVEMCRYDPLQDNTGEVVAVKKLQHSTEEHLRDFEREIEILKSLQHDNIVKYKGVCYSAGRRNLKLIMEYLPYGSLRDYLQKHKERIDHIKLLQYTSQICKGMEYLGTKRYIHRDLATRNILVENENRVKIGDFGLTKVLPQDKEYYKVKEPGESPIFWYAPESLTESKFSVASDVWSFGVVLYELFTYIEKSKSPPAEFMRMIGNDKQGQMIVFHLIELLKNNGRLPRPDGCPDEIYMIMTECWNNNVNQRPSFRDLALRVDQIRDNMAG

[3] = target: Serine/threonine-protein kinase pim-1 (Homo sapiens, UniProt P11309); assay: Inhibition of Pim1 after 1 hr using biotinylated AL1peptide as substrate
Serine/threonine-protein kinase pim-1, sequence (P11309 whole entry): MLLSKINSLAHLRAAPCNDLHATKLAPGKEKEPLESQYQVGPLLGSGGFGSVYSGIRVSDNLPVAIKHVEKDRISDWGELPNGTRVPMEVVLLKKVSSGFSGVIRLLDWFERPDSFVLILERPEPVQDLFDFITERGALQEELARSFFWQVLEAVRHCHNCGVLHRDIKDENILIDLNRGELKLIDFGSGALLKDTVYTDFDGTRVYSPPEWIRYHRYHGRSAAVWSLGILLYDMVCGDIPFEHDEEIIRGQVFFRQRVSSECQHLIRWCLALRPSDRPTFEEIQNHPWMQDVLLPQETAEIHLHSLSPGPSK

[4] = target: Rho-associated protein kinase 2 (Homo sapiens, UniProt O75116); assay: Inhibition of Rock2 after 1 hr using biotinylated longS peptide as substrate
[5] = target: Serine/threonine-protein kinase PAK 4 (Homo sapiens, UniProt O96013); assay: Inhibition of Pak4 after 1 hr using biotinylated L15 peptide as substrate
Serine/threonine-protein kinase PAK 4, sequence (O96013 whole entry): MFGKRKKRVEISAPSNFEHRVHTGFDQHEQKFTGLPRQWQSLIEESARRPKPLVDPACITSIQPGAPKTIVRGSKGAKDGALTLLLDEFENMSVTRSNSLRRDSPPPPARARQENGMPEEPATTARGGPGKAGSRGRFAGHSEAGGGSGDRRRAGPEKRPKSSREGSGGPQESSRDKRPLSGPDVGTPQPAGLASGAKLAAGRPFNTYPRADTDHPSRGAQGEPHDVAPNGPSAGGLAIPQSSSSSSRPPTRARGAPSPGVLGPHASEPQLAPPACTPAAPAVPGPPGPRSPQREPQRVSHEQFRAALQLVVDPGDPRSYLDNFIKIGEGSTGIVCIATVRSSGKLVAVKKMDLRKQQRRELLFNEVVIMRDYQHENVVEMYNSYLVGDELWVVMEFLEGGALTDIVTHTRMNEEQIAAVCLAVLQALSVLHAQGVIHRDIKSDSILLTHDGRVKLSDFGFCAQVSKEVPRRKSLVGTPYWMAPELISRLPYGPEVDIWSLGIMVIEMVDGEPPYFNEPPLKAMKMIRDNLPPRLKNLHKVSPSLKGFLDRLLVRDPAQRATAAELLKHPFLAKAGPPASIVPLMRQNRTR

[6] = target: Epidermal growth factor receptor (Homo sapiens, UniProt P00533)
Epidermal growth factor receptor, sequence (P00533 whole entry): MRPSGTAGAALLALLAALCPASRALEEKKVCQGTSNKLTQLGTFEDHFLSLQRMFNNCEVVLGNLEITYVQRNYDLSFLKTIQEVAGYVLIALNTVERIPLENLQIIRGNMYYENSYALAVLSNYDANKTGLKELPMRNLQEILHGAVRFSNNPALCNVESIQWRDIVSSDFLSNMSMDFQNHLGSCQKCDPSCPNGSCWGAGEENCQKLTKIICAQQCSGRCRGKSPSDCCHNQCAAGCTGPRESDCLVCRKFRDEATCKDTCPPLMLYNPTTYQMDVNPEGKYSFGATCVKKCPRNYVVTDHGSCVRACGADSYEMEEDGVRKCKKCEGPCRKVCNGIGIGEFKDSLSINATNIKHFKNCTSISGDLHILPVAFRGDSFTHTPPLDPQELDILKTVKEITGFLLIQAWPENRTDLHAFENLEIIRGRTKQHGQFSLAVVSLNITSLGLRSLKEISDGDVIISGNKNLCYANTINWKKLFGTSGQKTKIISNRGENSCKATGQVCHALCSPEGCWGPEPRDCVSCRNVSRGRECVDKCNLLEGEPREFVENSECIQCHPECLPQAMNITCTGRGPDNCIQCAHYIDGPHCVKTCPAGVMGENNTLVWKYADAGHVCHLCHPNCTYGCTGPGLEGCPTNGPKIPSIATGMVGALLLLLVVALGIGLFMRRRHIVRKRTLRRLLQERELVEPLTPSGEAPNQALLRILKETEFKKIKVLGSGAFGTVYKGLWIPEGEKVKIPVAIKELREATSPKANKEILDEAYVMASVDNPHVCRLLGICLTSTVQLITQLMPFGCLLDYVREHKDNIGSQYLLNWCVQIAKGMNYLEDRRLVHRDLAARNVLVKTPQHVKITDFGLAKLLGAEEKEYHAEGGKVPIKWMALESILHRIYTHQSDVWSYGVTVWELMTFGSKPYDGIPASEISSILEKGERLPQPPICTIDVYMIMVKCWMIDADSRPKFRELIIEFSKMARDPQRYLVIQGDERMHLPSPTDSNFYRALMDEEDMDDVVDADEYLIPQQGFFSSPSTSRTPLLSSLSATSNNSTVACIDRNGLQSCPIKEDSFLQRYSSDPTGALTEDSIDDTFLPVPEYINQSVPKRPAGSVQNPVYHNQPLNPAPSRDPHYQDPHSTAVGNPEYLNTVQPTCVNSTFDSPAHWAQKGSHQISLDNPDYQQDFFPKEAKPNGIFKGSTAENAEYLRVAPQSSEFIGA
Description: Inhibition of EGFR after 1 hr

[7] = target: Vascular endothelial growth factor receptor 2 (Homo sapiens, UniProt P35968); assay: Inhibition of KDR after 1 hr
Vascular endothelial growth factor receptor 2, sequence (P35968 whole entry): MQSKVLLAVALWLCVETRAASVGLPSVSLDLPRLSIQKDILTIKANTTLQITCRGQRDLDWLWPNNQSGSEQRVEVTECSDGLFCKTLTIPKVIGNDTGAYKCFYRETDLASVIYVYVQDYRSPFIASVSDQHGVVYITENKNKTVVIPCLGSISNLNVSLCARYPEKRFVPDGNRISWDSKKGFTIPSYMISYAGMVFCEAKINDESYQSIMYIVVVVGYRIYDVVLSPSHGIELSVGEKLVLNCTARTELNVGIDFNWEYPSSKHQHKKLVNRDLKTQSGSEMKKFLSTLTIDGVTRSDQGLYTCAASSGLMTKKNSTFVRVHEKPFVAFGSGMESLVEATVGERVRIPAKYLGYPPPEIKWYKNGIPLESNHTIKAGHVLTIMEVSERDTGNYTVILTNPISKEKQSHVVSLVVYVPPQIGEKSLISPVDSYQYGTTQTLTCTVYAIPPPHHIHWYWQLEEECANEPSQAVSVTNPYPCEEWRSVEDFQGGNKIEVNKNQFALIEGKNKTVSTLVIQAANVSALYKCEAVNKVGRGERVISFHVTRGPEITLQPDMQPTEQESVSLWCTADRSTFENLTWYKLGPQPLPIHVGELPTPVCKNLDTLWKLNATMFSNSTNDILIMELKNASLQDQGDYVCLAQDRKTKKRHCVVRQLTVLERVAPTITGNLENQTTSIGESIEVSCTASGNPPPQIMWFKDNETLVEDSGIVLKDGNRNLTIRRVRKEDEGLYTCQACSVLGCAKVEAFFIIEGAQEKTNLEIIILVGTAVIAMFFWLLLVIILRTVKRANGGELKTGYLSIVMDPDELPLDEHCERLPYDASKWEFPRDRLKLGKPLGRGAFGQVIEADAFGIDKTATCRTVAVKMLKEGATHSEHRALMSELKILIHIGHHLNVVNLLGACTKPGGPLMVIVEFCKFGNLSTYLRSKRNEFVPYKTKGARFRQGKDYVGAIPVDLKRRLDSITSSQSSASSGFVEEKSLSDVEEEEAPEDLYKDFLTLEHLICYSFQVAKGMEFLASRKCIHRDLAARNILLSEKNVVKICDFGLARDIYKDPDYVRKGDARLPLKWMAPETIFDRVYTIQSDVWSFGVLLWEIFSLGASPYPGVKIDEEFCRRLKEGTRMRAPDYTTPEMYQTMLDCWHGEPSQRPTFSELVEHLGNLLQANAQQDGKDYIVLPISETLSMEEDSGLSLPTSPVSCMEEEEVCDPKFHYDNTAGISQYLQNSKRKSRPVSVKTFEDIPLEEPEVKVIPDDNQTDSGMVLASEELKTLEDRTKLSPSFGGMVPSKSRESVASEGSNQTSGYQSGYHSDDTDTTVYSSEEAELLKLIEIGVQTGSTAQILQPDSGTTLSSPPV

Glycogen synthase kinase-3 beta, sequence (P49841 whole entry): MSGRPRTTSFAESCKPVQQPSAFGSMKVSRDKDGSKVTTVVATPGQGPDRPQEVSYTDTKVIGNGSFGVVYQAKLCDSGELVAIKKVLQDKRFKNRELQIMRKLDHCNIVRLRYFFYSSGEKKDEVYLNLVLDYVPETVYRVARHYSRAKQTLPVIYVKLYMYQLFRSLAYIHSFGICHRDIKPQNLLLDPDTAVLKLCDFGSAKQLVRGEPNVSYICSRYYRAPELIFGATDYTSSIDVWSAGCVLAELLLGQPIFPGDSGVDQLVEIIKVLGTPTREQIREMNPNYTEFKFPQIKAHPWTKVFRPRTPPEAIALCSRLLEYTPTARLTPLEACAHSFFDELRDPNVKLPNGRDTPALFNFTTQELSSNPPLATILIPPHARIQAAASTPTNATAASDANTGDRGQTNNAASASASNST

Compound: Clc1ccccc1Cn1cc(-c2ccc3[nH]ncc3c2)nn1
- Ki [1]: 45 nM
- Ki [2]: > 1450 nM
- Ki [3]: 4150 nM
- Ki [4]: 97 nM

Compound: c1cc2[nH]ncc2cc1-n1cc(C2CCCC2)nn1
- Ki [1]: 1300 nM
- Ki [2]: 791 nM
- Ki [5]: > 3750 nM
- Ki [3]: > 8570 nM
- Ki [6]: > 1800 nM
- Ki [4]: 44 nM
- Ki [7]: > 8880 nM

Compound: CCCc1cn(-c2ccc3[nH]ncc3c2)nn1
- Ki [1]: 2030 nM
- Ki [2]: 756 nM
- Ki [5]: > 3750 nM
- Ki [3]: 8360 nM
- Ki [6]: > 1800 nM
- Ki [4]: 108 nM
- Ki [7]: > 8880 nM

Compound: Cc1cccc(Cn2cc(-c3ccc4[nH]ncc4c3)nn2)c1
- Ki [1]: 70 nM
- Ki [4]: 375 nM
- Ki [7]: > 915 nM

Compound: c1cc2[nH]ncc2cc1-n1cc(C2CC2)nn1
- Ki [1]: 3470 nM
- Ki [2]: 1450 nM
- Ki [5]: > 3750 nM
- Ki [3]: > 8570 nM
- Ki [6]: > 1800 nM
- Ki [4]: 356 nM
- Ki [7]: > 8880 nM

Compound: OCCCc1cn(-c2ccc3[nH]ncc3c2)nn1
- Ki [1]: 5220 nM
- Ki [2]: 1450 nM
- Ki [5]: > 3750 nM
- Ki [3]: > 8570 nM
- Ki [6]: > 1800 nM
- Ki [4]: 230 nM
- Ki [7]: > 8880 nM

Compound: c1ccc(CCCc2cn(-c3ccc4[nH]ncc4c3)nn2)cc1
- Ki [1]: 528 nM
- Ki [2]: 644 nM
- Ki [5]: > 3750 nM
- Ki [3]: > 8570 nM
- Ki [6]: > 1800 nM
- Ki [4]: 62 nM
- Ki [7]: > 8880 nM

Compound: Clc1cccc(Cn2cc(-c3ccc4[nH]ncc4c3)nn2)c1
- Ki [1]: 23 nM
- Ki [2]: 1450 nM
- Ki [4]: 39 nM
- Ki [7]: 13100 nM

Compound: c1cc2[nH]ncc2cc1-c1cc(CN2CCCCC2)no1
- Ki [1]: 3810 nM
- Ki [2]: > 1450 nM

Compound: Nc1n[nH]c2ccc(-c3cc(Cc4ccccc4)no3)cc12
- Ki [1]: 450 nM
- Ki [2]: 16 nM
- Ki [5]: 3590 nM
- Ki [3]: 5160 nM
- Ki [4]: 16 nM
- Ki [7]: 3290 nM

Compound: Fc1cccc(Cn2cc(-c3ccc4[nH]ncc4c3)nn2)c1
- Ki [1]: 26 nM
- Ki [3]: 12000 nM
- Ki [4]: 180 nM

Compound: CNC(=O)c1cc(-c2ccc3[nH]ncc3c2)on1
- Ki [1]: 4270 nM
- Ki [5]: > 3750 nM
- Ki [3]: 3680 nM
- Ki [4]: 402 nM
- Ki [7]: > 8880 nM

Compound: c1ccc(Cc2cn(-c3ccc4[nH]ncc4c3)nn2)cc1
- Ki [1]: 542 nM

Compound: Clc1ccc(Cl)c(Cn2cc(-c3ccc4[nH]ncc4c3)nn2)c1
- Ki [1]: 16 nM
- Ki [3]: 36000 nM
- Ki [4]: 18 nM
- Ki [7]: 127000 nM

Compound: CCCc1cc(-c2ccc3[nH]ncc3c2)on1
- Ki [1]: 2530 nM

Compound: COCc1cn(-c2ccc3[nH]ncc3c2)nn1
- Ki [1]: > 5450 nM
- Ki [2]: > 1450 nM
- Ki [5]: > 3750 nM
- Ki [3]: > 8570 nM
- Ki [6]: > 1800 nM
- Ki [4]: 635 nM
- Ki [7]: > 8880 nM

Compound: Fc1ccc(Cn2cc(-c3ccc4[nH]ncc4c3)nn2)cc1
- Ki [1]: 70 nM
- Ki [3]: 165000 nM
- Ki [4]: 285 nM

Compound: c1cc2n[nH]cc2cc1-c1c[nH]nn1
- Ki [1]: 448 nM
- Ki [2]: 1450 nM
- Ki [5]: 69900 nM
- Ki [3]: 2220 nM
- Ki [4]: 209 nM
- Ki [7]: 3550 nM

Compound: Fc1ccccc1Cn1cc(-c2ccc3[nH]ncc3c2)nn1
- Ki [1]: 91 nM
- Ki [5]: 13100 nM
- Ki [3]: 10200 nM
- Ki [4]: 285 nM
- Ki [7]: > 915 nM

Compound: c1ccc(CCc2cn(-c3ccc4[nH]ncc4c3)nn2)cc1
- Ki [1]: 446 nM
- Ki [2]: 898 nM
- Ki [5]: > 3750 nM
- Ki [3]: > 8570 nM
- Ki [6]: > 1800 nM
- Ki [4]: 19 nM
- Ki [7]: > 8880 nM

Compound: Clc1cccc(Cn2cc(-c3ccc4[nH]ncc4c3)nn2)c1Cl
- Ki [1]: 48 nM
- Ki [5]: 67600 nM
- Ki [3]: 20300 nM
- Ki [4]: 15 nM

Compound: Clc1ccc(Cn2cc(-c3ccc4[nH]ncc4c3)nn2)cc1
- Ki [1]: 197 nM
- Ki [3]: 37800 nM
- Ki [4]: 68 nM
- Ki [7]: 2710 nM

Compound: c1cc2[nH]ncc2cc1-n1cc(CC2CCCCC2)nn1
- Ki [1]: 891 nM
- Ki [2]: 281 nM
- Ki [5]: > 3750 nM
- Ki [3]: > 8570 nM
- Ki [6]: > 1800 nM
- Ki [4]: 100 nM
- Ki [7]: > 8880 nM

Compound: Clc1cc(Cl)cc(Cn2cc(-c3ccc4[nH]ncc4c3)nn2)c1
- Ki [1]: 28 nM
- Ki [3]: 41500 nM
- Ki [4]: 41 nM
- Ki [7]: > 915 nM
